Test results as given in paper PMC9588787, “Exploring the In situ pairing of human galectins toward synthetic O-mannosylated core M1 glycopeptides of α-dystroglycan” (Scientific Reports, 2022).
“Also recorded” adds a separate entry of the source. Each block holds one molecule with its values, some of them ahead of it. Where no end group is shown, it is not given here.

Assays:
Gal-3 [1] = test: Glycopeptide microarray lectin binding assay, Gal-3; set-up: species or system human; conditions: compounds immobilised at 20 and/or 200 μM; Gal-3 0.10-32.0 µg/mL, PBS pH 7.4, no reducing agent
Method: (§1) Following our reported optimized protocol, the binding profile of lectins were investigated using evanescent-field fluorescence-assisted microarray technology to directly monitor the interaction without the wash and dry-up process and rapid exchange of protein solution to evaluate concentration dependence, 0.10–32.0 µg/mL protein. The AO/PC-copolymer microarray slides were deprotected using 2N HCl treatment overnight at rt, rinsed with MilliQ H2O, and dried by centrifugation. […]
(§2) A silicon rubber sheet with six chambers was attached to the printed slide. […] After 1 h of incubation with the lectin solution at rt in a humidified chamber, the slide was rinsed with washing buffer (reaction buffer with containing 0.05% (v/v) Tween-20) and fluorescence intensity was measured with GlycoStation System. To determine whether additional interactions will be detected at higher lectin concentrations, the reaction buffer solution was carefully removed and replaced with the next lectin test concentration, incubated for 5 min at rt, washed with reaction buffer and then fluorescence intensity was obtained. […]
(§3) Images of slides were captured in the presence of reaction buffer. The fluorescexcelence intensities obtained were analyzed using ArrayVision 8.0 (GE Healthcare). […]

Gal-1, Gal-4, and Gal-9 = test: Microarray inhibition experiment (methyl-Lac, cellobiose, maltose, acetylated peptide 4); format: binding, human; conditions: for Effect of soluble inhibitor on galectin binding to immobilised glycopeptides: 10 µg/mL galectin, sugars 2.00 µM to 200 mM, acetylated peptide 4 100 µM to 5.00 mM; for Gal-1 interaction with immobilised compound upon addition of methyl-Lac: Gal-1, Fig. 5b, 2.00 µM to 200 mM methyl-Lac
Method: After 30 min of incubation with the galectin-inhibitor solution at rt in a humidified chamber, the slide was rinsed with washing buffer and fluorescence intensity was measured with GlycoStation System. […] Slide images were captured and analyzed as described above.

Gal-1 [2] = test: 1H-15N HSQC NMR chemical shift perturbation of 15N-labeled Gal-1; format: binding, human; conditions: tested concentrations, 0.05 up to 64 equivalents of ligand; 100 µM Gal-1, pH 6.9, 10 mM DTT
Method: ^15N Gal-1 was expressed in Escherichia coli cells BL21(DE3) from pET-GST/TEV-LGVLFQGP-hLGALS1 vector (VectorBuilder, Japan). The component cells were transformed with an expression vector utilizing the heat shock method. After one night of incubation on LB Agar plate (containing 100 μg/mL ampicillin), a colony harboring the expression construct was selected and then inoculated unto 5 mL Luria Broth (LB) with antibiotic overnight at 37 °C with shaking. The bacterial pellet was then resuspended to a fresh 500 mL M9-labeled (^15N-NH4Cl as nitrogen source) medium containing ampicillin. After that, culture was grown at 37 °C for at least 4 h until OD600 = 0.6–1.2. The cells were then induced with 0.5 mM isopropyl-β-D-1-thiogalactopyranoside (IPTG) overnight at 25 °C. Bacteria expressing ^15N Gal-1 was lysed with a sonicator (for 5 min, 25% duty cycle. 5 output control) in buffer containing 50 mM PBS, pH 7.4, 150 mM NaCl, 2 mM DTT. […] Lectin-binding activity was analyzed by 15N-HQSC with methyl-Lac. […]
The ^15N-labeled Gal-1 was prepared at 100 µM concentration in 20 mM potassium phosphate buffer at pH 6.9, 50 µM EDTA and 10 mM DTT, made up using H2O/D2O (95:5%). […] Raw data were converted using TopSpin 4.1.3 and were analyzed using NMRFAM-Sparky[71]. […] The perturbation pattern of the Gal-1 (PDB ID: 1GZW) was analyzed and visualized by PyMOL 2.5.0 (http://www.pymol.org).

laminins = conditions: basal lamina; read-out: Kd of Gal-1 binding to poly-LacNAc structures of laminins; cited from earlier work
Description: In the basal lamina, Gal-1 binds to the poly-LacNAc structures of laminins (Kd≈10^−6 M), to maintain glycan recognizing function of Gal-1 in the ECM[61]. During muscle repair, Gal-1 binds directly to laminin and α7β1 integrin modulating the late myoblast fusion. In addition, Gal-1 can dissociate from laminin and cross-link olfactory neurons, forming ne ...

Gal-3 [3] = conditions: read-out: Kd of interaction with Gal-3; cited from earlier work
Description: The glycan-CBP interactions are influenced by not only the type of glycan but also the spatial orientation, carrier scaffold, accessibility, density, and spacing of sugar moieties along the glycoconjugate, to obtain optimum fit within the binding pocket of the receptors[37],[40],[44].

Gal-1 [4] = test: Glycopeptide microarray lectin binding assay, Gal-1; set-up: species or system human; conditions: compounds immobilised at 20 and/or 200 μM, quadruplets; labelled Gal-1 0.10-32.0 µg/mL, PBS pH 7.4, no reducing agent, ambient air (partially oxidizing)
Method: Following our reported optimized protocol, the binding profile of lectins were investigated using evanescent-field fluorescence-assisted microarray technology to directly monitor the interaction without the wash and dry-up process and rapid exchange of protein solution to evaluate concentration dependence, 0.10–32.0 µg/mL protein. The AO/PC-copolymer microarray slides were deprotected using 2N HCl treatment overnight at rt, rinsed with MilliQ H2O, and dried by centrifugation. Then, test compounds were robotically printed using Arduino-based CNC machine handcrafted robot in quadruplets at two concentrations (20 and 200 µM) in 25 mM AcOH-Pyr (pH 5.0), 0.0025% (w/v) Triton X-100 under constant condition (temperature: 20–25 °C and humidity: 35–45 RH). A 25 µg/mL Cyanin3-keto-BSA (Cy3-keto-BSA) was also printed in the slide as grid. Subsequently, the slide was incubated at 80 °C for 1 h to complete the oxime bond formation. Washed once with Milli-Q H2O and dried by centrifugation at 2,000 rpm for 2 min.
A silicon rubber sheet with six chambers was attached to the printed slide. Next, slide was pretreated with reaction buffer {Phosphate-Buffered Saline solution (PBS, 1X) [10 mM Na2HPO4, 1.8 mM KH2PO4, 2.7 mM KCl, 137 mM NaCl] pH7.4 containing 0.05% (v/v) Tween-20} for 15 min and dried by centrifugation. The PBS (with or without 10 mM DTT) solutions of galectin were prepared and maintained at a cold ice bath before use. Thereafter, a cover glass was set on each chamber and 12 µL of 0.10 µg/mL lectin solution in reaction buffer was added through the gap of the slide and cover. After 1 h of incubation with the lectin solution at rt in a humidified chamber, the slide was rinsed with washing buffer (reaction buffer with containing 0.05% (v/v) Tween-20) and fluorescence intensity was measured with GlycoStation System. To determine whether additional interactions will be detected at higher lectin concentrations, the reaction buffer solution was carefully removed and replaced with the next lectin test concentration, incubated for 5 min at rt, washed with reaction buffer and then fluorescence intensity was obtained. This step was repeated until all the chosen test concentrations were completed (0.32-, 1.00-, 3.20-, 10.0-, and 32.0 µg/mL).
Images of slides were captured in the presence of reaction buffer. The fluorescexcelence intensities obtained were analyzed using ArrayVision 8.0 (GE Healthcare). For each spot, background correction was applied to get the net intensity, and the average relative fluorescence unit (RFU) was plotted using Microsoft Excel for Microsoft 365. The lectin specificity was identified from high and low RFU values, the error bars being the standard deviation.

Gal-4 = test: Glycopeptide microarray lectin binding assay, Gal-4; set-up: species or system human; conditions: compounds immobilised at 20 and/or 200 μM; Gal-4 0.10-32.0 µg/mL, PBS pH 7.4, no reducing agent
Method: as §1, §2, §3

[5] = test system: laminin-111, -121, -211, and -221 with unlabeled Gal-1; test: Laminin–Gal-1 binding assay (trans-bridging on microarray); set-up: species or system human; conditions: 200 μM immobilised compounds; 0.10-32.0 µg/mL Cy3-laminin–unlabeled Gal-1, 32.0 µg/mL extended 30 min
Method: A 12 µL of premixed Cy3-labeled human recombinant laminin (BroadPharm and Biolamina, respectively) and unlabeled-Gal-1 with final concentration of 0.10 µg/mL was added to the printed test compounds. After 1 h of incubation with the laminin-galectin solution at rt in a humidified chamber, the slide was rinsed with washing buffer and fluorescence intensity was measured with GlycoStation System. To determine whether additional interactions will be detected at higher laminin-Gal-1 concentrations, the reaction buffer solution was carefully removed and replaced with the next test concentration, incubated for 5 min at rt, washed with reaction buffer and then fluorescence intensity was obtained. This step was repeated until all the chosen test concentrations were completed (0.32-, 1.00-, 3.20-, 10.0-, and 32.0 µg/mL). For weak interaction, incubation with 32.0 µg/mL of laminin-Gal-1 solution was extended for 30 min. Slide images were captured and analyzed as described above.

Gal-1, -3, -4, and -9 = test: Glycopeptide microarray, statements for the galectin test panel as a whole; format: binding, human; conditions: compounds immobilised at 20 and/or 200 μM; galectins 0.10-32.0 µg/mL, PBS pH 7.4, no reducing agent
Method: as §1, §2, §3

Gal-9 = test: Glycopeptide microarray lectin binding assay, Gal-9; set-up: species or system human; conditions: compounds immobilised at 20 and/or 200 μM; Gal-9 0.10-32.0 µg/mL, PBS pH 7.4, no reducing agent
Method: as §1, §2, §3

Molecule: 5-oxo-hexanoyl-TRGAIIQTPTLGPIQPTRV -NH2 [compound 15, bis-LacNAc core M1 α-DG glycopeptide, consecutive glycosylation sites]
Gal-3 binding, microarray signal intensity (RFU) (Gal-3 [1]): stronger affinity

Molecule: 32: acetylated N-terminus unglycosylated α-DG peptide corresponding to 4 (Ac-TRGAIIQTPTLGPIQPTRV) [compound 32]
Effect of soluble inhibitor on galectin binding to immobilised glycopeptides (Gal-1, Gal-4, and Gal-9): minimal effect on the binding
Chemical shift perturbation of 15N Gal-1 over the titration (Gal-1 [2]): failed to induce any significant deviation in the chemical shift

Molecule: Gal-1: prototype homodimeric human galectin
Kd (laminins): ~1 µM

Molecule: Galβ1,3GalNAcα1-O-Ser/Thr [TF antigen]
Kd (Gal-3 [3]): 245 µM

Molecule: 5-oxo-hexanoyl-TRGAIIQTPTLGPIQPTRV -NH2 [compound 28, α-DG glycopeptide with heterogeneous glycans: sialyl-LacNAc core M1 and LacNAc core M1]
Gal-1 binding, microarray signal intensity (RFU) (Gal-1 [4]): bound; also recorded: diminished Gal-1 binding
Gal-4 binding, microarray signal intensity (RFU) (Gal-4): significant reduction in the affinity
Gal-1 trans-bridging of Cy3-laminin to immobilised compound, signal intensity [5]: decrease in the trans-bridging activity

Molecule: 5-oxo-hexanoyl-TRGAIIQTPTLGPIQPTRV -NH2 [compound 6, mono-core M1 α-DG glycopeptide]
Gal-1 binding, microarray signal intensity (RFU) (Gal-1 [4]): did not show significant interaction
Gal-1 interaction with immobilised compound upon addition of methyl-Lac (Gal-1, Gal-4, and Gal-9): enhanced interaction
Gal-1 trans-bridging of Cy3-laminin to immobilised compound, signal intensity [5]: remarkable signal intensities

Molecule: 5-oxo-hexanoyl-TRGAIIQTPTLGPIQPTRV -NH2 [compound 5, mono-core M1 α-DG glycopeptide]
Gal-1 binding, microarray signal intensity (RFU) (Gal-1 [4]): did not show significant interaction
Gal-1 interaction with immobilised compound upon addition of methyl-Lac (Gal-1, Gal-4, and Gal-9): enhanced interaction
Gal-1 trans-bridging of Cy3-laminin to immobilised compound, signal intensity [5]: remarkable signal intensities

Molecule: 5-oxo-hexanoyl-TRGAIIQTPTLGPIQPTRV -NH2 [compound 11, tris-core M1 α-DG glycopeptide]
Gal-1 binding, microarray signal intensity (RFU) (Gal-1 [4]): notable decrease in binding interaction

Molecule: CO[C@@H]1O[C@H](CO)[C@@H](O[C@@H]2O[C@H](CO)[C@H](O)[C@H](O)[C@H]2O)[C@H](O)[C@H]1O [methyl-Lac, methyl-β-lactoside, reference compound]
Effect of soluble inhibitor on galectin binding to immobilised glycopeptides (Gal-1, Gal-4, and Gal-9): significantly reduced interaction
Chemical shift perturbation of 15N Gal-1 over the titration (Gal-1 [2]): shifted the ^1H-^15N HSQC signals corresponding to the residues on S3–L6 regions

The next lines start with results.

Effect of soluble inhibitor on galectin binding to immobilised glycopeptides (Gal-1, Gal-4, and Gal-9): minimal effect on the binding
Molecule: O=C[C@H](O)[C@@H](O)[C@H](O[C@@H]1O[C@H](CO)[C@@H](O)[C@H](O)[C@H]1O)[C@H](O)CO [cellobiose, reference compound]

Gal-1 binding, microarray signal intensity (RFU) (Gal-1 [4]): bound
Binding of the tested galectins (panel statement), microarray signal intensity (Gal-1, -3, -4, and -9): high interaction
Molecule: 5-oxo-hexanoyl-TRGAIIQTPTLGPIQPTRV -NH2 [compound 26, α-DG glycopeptide with heterogeneous glycans: LacNAc core M1 and core M1]
Galectin interaction with immobilised compound in the presence of methyl-Lac (Gal-1, Gal-4, and Gal-9; 200 μM immobilised compounds, 10 µg/mL galectin with 2.00 µM to 200 mM methyl-Lac): significantly reduced interaction

Gal-3 binding, microarray signal intensity (RFU) (Gal-3 [1]): did not result in higher intensity
Binding of the tested galectins (panel statement), microarray signal intensity (Gal-1, -3, -4, and -9): lesser interaction
Molecule: 5-oxo-hexanoyl-TRGAIIQTPTLGPIQPTRV -NH2 [compound 18, tris-LacNAc terminated α-DG glycopeptide]

Gal-4 binding, microarray signal intensity (RFU) (Gal-4): interact
Gal-9 binding, microarray signal intensity (RFU) (Gal-9): interact
Gal-1 trans-bridging of Cy3-laminin to immobilised compound, signal intensity [5]: could anchor laminins
Molecule: 5-oxo-hexanoyl-TRGAIIQTPTLGPIQPTRV -NH2 [compound 4, unglycosylated α-DG peptide backbone (…) with ketone linker]
Gal-1 binding, microarray signal intensity (RFU) (Gal-1 [4]): binding was observed; also recorded: interact
